Assay results reported in US9237744B2, “Preservative solution for cells, tissues and organs containing rare sugar and preservative method thereof” (NATIONAL UNIVERSITY CORPORATION KAGAWA UNIVERSITY, priority 2004, dated 2016).

Tests used:
HFB (human fibroblast) = experiment: Cell growth after thawing of freeze-preserved cells, MTT assay (Example 1); type: cell-based; conditions: culture medium plus sugar, in comparison with other cases (FIG. 2)
Procedure: (§1) 1. Cells used: Hela (human cervical cancer), OVCAR-3 (human ovarian cancer), HuH-7 (human liver cancer), HaCaT (human skin keratinocyte), HFB (human fibroblast) and NIH3T3 (mouse fibroblast). Saccharides D-allose and the like were added to culture medium, Cell Banker (commercially available preservative solution) and DMSO at concentrations of 25 mM and 50 mM. Monosaccharides such as D-glucose, D-fructose, D-mannose and D-galactose which are present in nature in large quantities and D-allose, D-psicose, D-altrose, allitol, D-talitol and L-sorbose as rare sugars were used. Further, trehalose as disaccharide was used. The cells were preserved for 24 hours by being frozen at −80° C. 2) Cell growth: One day later, the cells were thawed, and 0.25˜2×10^4 cells/well were spread on 96-well plate with 0.1 mL medium. After a prescribed period of time, the cell growth was measured by MTT assay.

[1] = system: HFB cells and NIH3T3 cells; experiment: Proliferation ability after freeze-preservation with Cell Banker containing rare sugar (Example 1); type: cell-based, human, mouse; conditions: sugar added to Cell Banker, versus Cell Banker alone (FIG. 3)
Procedure: as §1, with “assay. 3) Then, the rare sugar was added to Cell Banker which was widely used for freeze-preservation of cells, and an effect of preservability was comparatively studied.” for “assay.”

[2] = system: Hela, OVCAR-3, HaCaT, HFB and NIH3T3 cells; experiment: Survival rate of cells after freeze-preservation at high sugar concentration, trypan blue (Example 2); type: cell-based, human, mouse; conditions: sugar-containing medium in comparison with medium alone (FIG. 7)
Procedure: 1. Cells used: Hela (human cervical cancer), OVCAR-3 (human ovarian cancer), HaCaT (human skin keratinocyte), HFB (human fibroblast) and NIH3T3 (mouse fibroblast). Saccharides D-allose and the like were added to culture medium, Cell Banker (commercially available preservative solution) and DMSO at concentrations of 0.2, 0.4, 0.6, 0.8 and 1M. Monosaccharides such as D-glucose, D-fructose, D-mannose and D-galactose which are present in nature in large quantities and D-allose, D-altrose, D-psicose, L-psicose, D-sorbose, L-sorbose, D-tagatose, L-tagatose and L-fructose as rare sugars were used. Further, trehalose as disaccharide was used. The cells frozen with D-allose were freeze-preserved at −80° C. and in liquid nitrogen for 24 hours, 1 week and 4 weeks. 1) Survival rate of cells: The cells were thawed, and the survival rate was estimated by a trypan blue dying method.

[3] = system: Hela, OVCAR-3, HaCaT, HFB and NIH3T3 cells; experiment: Cell growth after thawing of cells freeze-preserved at optimum concentrations, MTT assay (Example 2); type: cell-based, human, mouse; conditions: freeze-preserved 24 hours at optimum concentration, versus other cases (FIG. 8)
Procedure: 1. Cells used: Hela (human cervical cancer), OVCAR-3 (human ovarian cancer), HaCaT (human skin keratinocyte), HFB (human fibroblast) and NIH3T3 (mouse fibroblast). Saccharides D-allose and the like were added to culture medium, Cell Banker (commercially available preservative solution) and DMSO at concentrations of 0.2, 0.4, 0.6, 0.8 and 1M. Monosaccharides such as D-glucose, D-fructose, D-mannose and D-galactose which are present in nature in large quantities and D-allose, D-altrose, D-psicose, L-psicose, D-sorbose, L-sorbose, D-tagatose, L-tagatose and L-fructose as rare sugars were used. Further, trehalose as disaccharide was used. The cells frozen with D-allose were freeze-preserved at −80° C. and in liquid nitrogen for 24 hours, 1 week and 4 weeks. 2) Cell growth: The cells were freeze-preserved with D-allose and trehalose at optimum concentrations for 24 hours, thawed, and spread on a 96-well plate such that the concentration was 0.5-1×10^4 cells/well/0.1 ml. After a prescribed period of time, the cell growth was measured by MTT assay.

OC[C@H]1O[C@H](O[C@H]2O[C@H](CO)[C@@H](O)[C@H](O)[C@H]2O)[C@H](O)[C@@H](O)[C@@H]1O [trehalose, reference compound]
growth rate of cells after thawing (HFB (human fibroblast)): nearly the same effect was obtained
proliferation ability after freeze-preservation [1]: nearly the same effect was obtained
number of cells survived (trypan blue dying) [2]: the same
growth rate of cells after thawing [3]: nearly the same effect was obtained
